Reference: ChEMBL document CHEMBL6134779, “Design of Proteolytic-Resistant Antifungal Peptides by Utilizing Minimum d-Amino Acid Ratios” (J Med Chem, 2024)
≈ marks a conversion by molar mass, not a printed value.

Tests used:
[1] = Hemolytic activity in human red blood cells assessed as hemolysis rate at 512 uM incubated for 1 hr relative to control; type: toxicity, cell-based, Erythrocyte; details: read-out: Activity
[2] = Stability of the compound in FeCl3 assessed as change in secondary structure by CD spectra analysis; type: physicochemical
[3] = test system: Candida albicans; assay: Antifungal activity against Candida albicans SP3931 assessed as inhibition of fungal growth incubated for 48 hrs; type: functional
[4] = test system: Candida albicans; assay: Antifungal activity against Candida albicans SP3876 assessed as inhibition of fungal growth incubated for 48 hrs; type: functional
[5] = Stability of the compound in ZnCl2 assessed as change in secondary structure by CD spectra analysis; type: physicochemical
[6] = Stability of the compound in KCl assessed as change in secondary structure by CD spectra analysis; type: physicochemical
[7] = test system: HEK293; assay: Cytotoxicity against HEK293 cells assessed as reduction in cell viability at 128 uM incubated for 4 hrs by MTT assay; type: toxicity, cell-based; details: human, hek293, 4 h
[8] = test system: Candida albicans; assay: Antifungal activity against Fluconazole-resistant Candida albicans 58288 assessed as inhibition of fungal growth incubated for 48 hrs; type: functional
[9] = test system: Candida albicans; assay: Antifungal activity against Candida albicans CGMCC 2.2086 assessed as inhibition of fungal growth incubated for 48 hrs in presence of FeCl3; type: functional
[10] = Hemolytic activity in human red blood cells assessed as hemolysis incubated for 1 hr; type: toxicity, cell-based, Erythrocyte
[11] = test system: Candida albicans; assay: Antifungal activity against Candida albicans CGMCC 2.2086 assessed as inhibition of fungal growth incubated for 48 hrs in presence of KCl; type: functional
[12] = test system: Candida albicans; assay: Antifungal activity against Candida albicans CGMCC 2.2086 assessed as inhibition of fungal growth incubated for 48 hrs in presence of ZnCl2; type: functional
[13] = test system: Candida albicans; assay: Antifungal activity against Candida albicans CGMCC 2.2086 assessed as inhibition of fungal growth incubated for 48 hrs in presence of NH4Cl; type: functional
[14] = test system: Candida tropicalis; assay: Antifungal activity against Candida tropicalis CGMCC 2.1975 assessed as inhibition of fungal growth incubated for 48 hrs; type: functional
[15] = Stability of the compound in NH4Cl assessed as change in secondary structure by CD spectra analysis; type: physicochemical
[16] = Stability of the compound in MgCl2 assessed as change in secondary structure by CD spectra analysis; type: physicochemical
[17] = test system: Candida albicans; assay: Antifungal activity against Candida albicans CGMCC 2.2086 assessed as inhibition of fungal growth incubated for 48 hrs in presence of NaCl; type: functional
[18] = test system: Candida albicans; assay: Antifungal activity against Candida albicans CGMCC 2.2086 assessed as inhibition of fungal growth incubated for 48 hrs in presence of CaCl2; type: functional
[19] = Stability of the compound in CaCl2 assessed as change in secondary structure by CD spectra analysis; type: physicochemical
[20] = test system: Candida albicans; assay: Antifungal activity against Fluconazole-resistant Candida albicans 56214 assessed as inhibition of fungal growth incubated for 48 hrs; type: functional
[21] = test system: Candida albicans; assay: Antifungal activity against Candida albicans 14936 assessed as inhibition of fungal growth incubated for 48 hrs; type: functional
[22] = test system: Candida albicans; assay: Antifungal activity against Candida albicans SP3903 assessed as inhibition of fungal growth incubated for 48 hrs; type: functional
[23] = test system: Candida albicans; assay: Antifungal activity against Candida albicans SP3902 assessed as inhibition of fungal growth incubated for 48 hrs; type: functional
[24] = test system: Candida parapsilosis; assay: Antifungal activity against Candida parapsilosis CGMCC 2.3989 assessed as inhibition of fungal growth incubated for 48 hrs; type: functional; details: Lodderomyces parapsilosis
[25] = test system: Candida albicans; assay: Antifungal activity against Candida albicans CGMCC 2.2086 assessed as inhibition of fungal growth incubated for 48 hrs; type: functional
[26] = test system: Candida albicans; assay: Antifungal activity against Candida albicans 56452 assessed as inhibition of fungal growth incubated for 48 hrs; type: functional
[27] = test system: Candida albicans; assay: Antifungal activity against Candida albicans CGMCC 2.2086 assessed as inhibition of fungal growth incubated for 48 hrs in presence of MgCl2; type: functional
[28] = Stability of the compound in NaCl assessed as change in secondary structure by CD spectra analysis; type: physicochemical
[29] = Cytotoxicity against porcine IPEC-J2 cells assessed as reduction in cell viability at 128 uM incubated for 4 hrs by MTT assay; type: toxicity, cell-based, Sus scrofa; details: pig, ipec-j2, 4 h
[30] = test system: Candida albicans; assay: Antifungal activity against Candida albicans 17546 assessed as inhibition of fungal growth incubated for 48 hrs; type: functional

CC[C@H](C)[C@H](N)C(=O)N[C@H](C(=O)N[C@H](CCCNC(=N)N)C(=O)N[C@@H](CCCNC(=N)N)C(=O)N[C@@H](Cc1c[nH]cn1)C(=O)N[C@H](C(=O)N[C@H](C(=O)N[C@H](C(=O)N[C@H](C(=O)N[C@H](CCCNC(=N)N)C(=O)N[C@@H](CCCNC(=N)N)C(=O)N[C@@H](Cc1c[nH]cn1)C(=O)N[C@H](C(=O)N[C@H](C(=O)N[C@H](C(=O)N[C@H](C(=O)N[C@H](CCCNC(=N)N)C(=O)N[C@@H](CCCNC(=N)N)C(=O)N[C@@H](Cc1c[nH]cn1)C(=O)N[C@H](C(=O)N[C@H](C(=O)N[C@H](C(=O)N[C@H](C(=O)N[C@H](CCCNC(=N)N)C(=O)N[C@@H](CCCNC(=N)N)C(=O)N[C@@H](Cc1c[nH]cn1)C(=O)N[C@H](C(=O)N[C@H](C(N)=O)[C@@H](C)CC)[C@@H](C)CC)[C@@H](C)CC)[C@@H](C)CC)[C@@H](C)CC)[C@@H](C)CC)[C@@H](C)CC)[C@@H](C)CC)[C@@H](C)CC)[C@@H](C)CC)[C@@H](C)CC)[C@@H](C)CC)[C@@H](C)CC)[C@@H](C)CC)[C@@H](C)CC
hemolysis at 1 h, 512 µM [1]: 38.9% | Stability [2]: Stable | MIC95 [3]: 8 µM (≈ 29 µg/mL) | MIC95 [4]: 4 µM (≈ 14.5 µg/mL) | Stability [5]: Stable | Stability [6]: Stable | Activity [7]: Toxic | MIC95 [8]: 8 µM (≈ 29 µg/mL) | MIC95 [9]: 16 µM | HC50 at 1 h [10]: > 512 µM | MIC95 [11]: 8 µM | MIC95 [12]: 16 µM | MIC95 [13]: 8 µM | MIC95 [14]: 4 µM (≈ 14.5 µg/mL) | Stability [15]: Stable | Stability [16]: Stable | MIC95 [17]: 32 µM | MIC95 [18]: 16 µM | Stability [19]: Stable | MIC95 [20]: 4 µM (≈ 14.5 µg/mL) | MIC95 [21]: 4 µM (≈ 14.5 µg/mL) | MIC95 [22]: 4 µM (≈ 14.5 µg/mL) | MIC95 [23]: 4 µM (≈ 14.5 µg/mL) | MIC95 [24]: 4 µM (≈ 14.5 µg/mL) | MIC95 [25]: 4 µM (≈ 14.5 µg/mL) | MIC95 [26]: 8 µM (≈ 29 µg/mL) | MIC95 [27]: 8 µM | Stability [28]: Unstable | Activity [29]: Toxic | MIC95 [30]: 8 µM (≈ 29 µg/mL)

CC[C@H](C)[C@H](N)C(=O)N[C@H](C(=O)N[C@H](CCCNC(=N)N)C(=O)N[C@@H](CCCNC(=N)N)C(=O)N[C@@H](Cc1c[nH]cn1)C(=O)N[C@H](C(=O)N[C@H](C(N)=O)[C@@H](C)CC)[C@@H](C)CC)[C@@H](C)CC
hemolysis at 1 h, 512 µM [1]: -1.57% | Stability [2]: Stable | MIC95 [3]: > 64 µM | MIC95 [4]: > 64 µM | Stability [5]: Stable | Stability [6]: Stable | MIC95 [8]: > 64 µM | MIC95 [9]: > 64 µM | HC50 at 1 h [10]: > 512 µM | MIC95 [11]: > 64 µM | MIC95 [12]: > 64 µM | MIC95 [13]: > 64 µM | MIC95 [14]: 64 µM (≈ 58.8 µg/mL) | Stability [15]: Stable | Stability [16]: Stable | MIC95 [17]: > 64 µM | MIC95 [18]: > 64 µM | Stability [19]: Stable | MIC95 [20]: > 64 µM | MIC95 [21]: > 64 µM | MIC95 [22]: > 64 µM | MIC95 [23]: 64 µM (≈ 58.8 µg/mL) | MIC95 [24]: > 64 µM | MIC95 [25]: > 64 µM | MIC95 [26]: > 64 µM | MIC95 [27]: > 64 µM | Stability [28]: Unstable | MIC95 [30]: > 64 µM

CC(C)[C@H](N)C(=O)N[C@H](C(=O)N[C@H](CCCNC(=N)N)C(=O)N[C@@H](CCCNC(=N)N)C(=O)N[C@@H](Cc1c[nH]cn1)C(=O)N[C@H](C(=O)N[C@H](C(=O)N[C@H](C(=O)N[C@H](C(=O)N[C@H](CCCNC(=N)N)C(=O)N[C@@H](CCCNC(=N)N)C(=O)N[C@@H](Cc1c[nH]cn1)C(=O)N[C@H](C(=O)N[C@H](C(=O)N[C@H](C(=O)N[C@H](C(=O)N[C@H](CCCNC(=N)N)C(=O)N[C@@H](CCCNC(=N)N)C(=O)N[C@@H](Cc1c[nH]cn1)C(=O)N[C@H](C(=O)N[C@H](C(=O)N[C@H](C(=O)N[C@H](C(=O)N[C@H](CCCNC(=N)N)C(=O)N[C@@H](CCCNC(=N)N)C(=O)N[C@@H](Cc1c[nH]cn1)C(=O)N[C@H](C(=O)N[C@H](C(N)=O)C(C)C)C(C)C)C(C)C)C(C)C)C(C)C)C(C)C)C(C)C)C(C)C)C(C)C)C(C)C)C(C)C)C(C)C)C(C)C)C(C)C)C(C)C
hemolysis at 1 h, 512 µM [1]: 21.7% | Stability [2]: Stable | MIC95 [3]: 8 µM (≈ 27.2 µg/mL) | MIC95 [4]: 8 µM (≈ 27.2 µg/mL) | Stability [5]: Stable | Stability [6]: Stable | Activity [7]: Toxic | MIC95 [8]: 8 µM (≈ 27.2 µg/mL) | MIC95 [9]: 16 µM | HC50 at 1 h [10]: > 512 µM | MIC95 [11]: 16 µM | MIC95 [12]: 32 µM | MIC95 [13]: 8 µM | MIC95 [14]: 4 µM (≈ 13.6 µg/mL) | Stability [15]: Stable | Stability [16]: Stable | MIC95 [17]: 64 µM | MIC95 [18]: 32 µM | Stability [19]: Stable | MIC95 [20]: 4 µM (≈ 13.6 µg/mL) | MIC95 [21]: 8 µM (≈ 27.2 µg/mL) | MIC95 [22]: 4 µM (≈ 13.6 µg/mL) | MIC95 [23]: 8 µM (≈ 27.2 µg/mL) | MIC95 [24]: 4 µM (≈ 13.6 µg/mL) | MIC95 [25]: 8 µM (≈ 27.2 µg/mL) | MIC95 [26]: 8 µM (≈ 27.2 µg/mL) | MIC95 [27]: 16 µM | Stability [28]: Unstable | Activity [29]: Toxic | MIC95 [30]: 8 µM (≈ 27.2 µg/mL)

CC(C)[C@H](N)C(=O)N[C@H](C(=O)N[C@H](CCCNC(=N)N)C(=O)N[C@@H](CCCNC(=N)N)C(=O)N[C@@H](Cc1c[nH]cn1)C(=O)N[C@H](C(=O)N[C@H](C(=O)N[C@H](C(=O)N[C@H](C(=O)N[C@H](CCCNC(=N)N)C(=O)N[C@@H](CCCNC(=N)N)C(=O)N[C@@H](Cc1c[nH]cn1)C(=O)N[C@H](C(=O)N[C@H](C(N)=O)C(C)C)C(C)C)C(C)C)C(C)C)C(C)C)C(C)C)C(C)C
hemolysis at 1 h, 512 µM [1]: -1.2% | Stability [2]: Stable | MIC95 [3]: > 64 µM | MIC95 [4]: > 64 µM | Stability [5]: Stable | Stability [6]: Stable | MIC95 [8]: > 64 µM | MIC95 [9]: > 64 µM | HC50 at 1 h [10]: > 512 µM | MIC95 [11]: > 64 µM | MIC95 [12]: > 64 µM | MIC95 [13]: 64 µM | MIC95 [14]: 4 µM (≈ 6.84 µg/mL) | Stability [15]: Stable | Stability [16]: Stable | MIC95 [17]: > 64 µM | MIC95 [18]: > 64 µM | Stability [19]: Stable | MIC95 [20]: > 64 µM | MIC95 [21]: > 64 µM | MIC95 [22]: > 64 µM | MIC95 [23]: > 64 µM | MIC95 [24]: > 64 µM | MIC95 [25]: > 64 µM | MIC95 [26]: > 64 µM | MIC95 [27]: > 64 µM | Stability [28]: Unstable | MIC95 [30]: 64 µM (≈ 109 µg/mL)
